26 compounds from patent publication US9204645B2, “Insecticidal aromatic amides” (BAYER INTELLECTUAL PROPERTY GMBH, priority 2011, dated 2015) can be followed below.

SMILES strings stand for the structures. Where two headings read alike, the source gives them in different places.

Series [1] can be described thus: logP determination by HPLC on a reversed-phase column (C18), EEC Directive 79/831 Annex V.A8. The format is physicochemical. The settings on record: HPLC-MS, C18, acetonitrile (0.1% formic acid)/water (0.09% formic acid) gradient, read-out: log P. On the procedure: HPLC-MS^a): mass (m/z)=462 […]. ^a) Note regarding the determination of the logP values and mass detection: The determination of the given logP values was carried out in accordance with EEC Directive 79/831 Annex V.A8 by HPLC (High Performance Liquid Chromatography) on a reversed-phase column (C18). Agilent 1100 LC system; 50*4.6 Zorbax Eclipse Plus C18 1.8 micron; mobile phase A: acetonitrile (0.1% formic acid); mobile phase B: water (0.09% formic acid); linear gradient from 10% acetonitrile to 95% acetonitrile in 4.25 min, then 95% acetonitrile for a further 1.25 min; oven temperature 55° C.; flow rate: 2.0 ml/min Mass detection is via an Agilent MSD system.
The calibration is carried out using unbranched alkan-2-ones (having 3 to 16 carbon atoms) with known logP values (determination of the logP values by the retention times using linear interpolation between two successive alkanones). The lambda-maX values were determined in the maxima of the chromatographic signals using the UV spectra from 200 nm to 400 nm.

Series [2] deals with larvae of the mustard beetle (Phaedon cochleariae). The series is described as follows: Phaedon cochleariae spray test (PHAECO). The note with it: for inhibition at 20 g/ha / inhibition at 100 g/ha: Phaedon cochleariae, 168 h; for inhibition at 20 g/ha: read-out: % Activity; for efficacy compared to similar compounds of the prior art: PHAECO spray test. The format is in vivo. How it is done:
Phaedon Cochleariae—Spray Test (PHAECO)
(§1) • Solvents: 78.0 parts by weight of acetone • 1.5 parts by weight of dimethylformamide • Emulsifier: 0.5 part by weight of alkylaryl polyglycol ether
(§2) To produce a suitable preparation of active compound, 1 part by weight of active compound is mixed with the stated amounts of solvents and emulsifier, and the concentrate is diluted with emulsifier-containing water to the desired concentration.
After the desired period of time, the effect in % is determined 100% means that all of the beetle larvae have been killed; 0% means that none of the beetle larvae have been killed.

In series [3] the test system is greenhouse red spider mite (Tetranychus urticae). In words: Tetranychus urticae spray test, OP-resistant (TETRUR), bean leaf discs. The format is in vivo. The settings on record: for inhibition at 500 g/ha / inhibition at 100 g/ha: Tetranychus urticae, foliar, 144 h, read-out: % Activity; for efficacy compared to similar compounds of the prior art: TETRUR spray test, leaf discs. How it is done: Tetranychus urticae—Spray Test; OP-resistant (TETRUR)
as §1, §2
Discs of bean leaves (Phaseolus vulgaris) which are infested by all stages of the greenhouse red spider mite (Tetranychus urticae) are sprayed with an active compound preparation of the desired concentration.
After the desired period of time, the effect in % is determined. 100% means that all of the spider mites have been killed; 0% means that none of the spider mites have been killed.

The test system of series [4] is green peach aphid (Myzus persicae). The series is described as follows: Myzus spray test (MYZUPE). Format: in vivo. The settings on record: for inhibition at 20 g/ha / inhibition at 100 g/ha / inhibition at 500 g/ha: Myzus persicae, 144 h; for inhibition at 20 g/ha / inhibition at 100 g/ha: read-out: % Activity; for efficacy compared to similar compounds of the prior art: MYZUPE spray test. How it is done:
Myzus—Spray Test (MYZUPE)
as §1, §2
Discs of Chinese cabbage leaves (Brassica pekinensis) infested by all stages of the green peach aphid (Myzus persicae) are sprayed with an active compound preparation of the desired concentration.
After the desired period of time, the effect in % is determined. 100% here means that all of the aphids have been killed; 0% means that no aphids have been killed.

For `Cn1nc(C(F)(F)C(F)(F)F)c([N+](=O)[O-])c1C(=O)O` [1-Methyl-4-nitro-3-(pentafluoroethyl)-1H-pyrazole-5-carboxylic acid], the chromatographic logP in series [1] came to 1.41.
The same measure, in the same setting: in the case of `CCC(=O)NC(C)c1cc(NC(=O)c2c(C(F)(F)F)c(C(F)(F)C(F)(F)F)nn2C)ccc1Cl` (stereo not drawn) [Am-28, N-{4-chloro-3-[1-(propionylamino)ethyl]phenyl}-1-methyl-3-(pentafluoroethyl)-4-(trifluoromethyl)-1H-pyrazole-5-carboxamide] it was 3.55.
`CCCC(=O)NCc1cc(NC(=O)c2c(C(F)(F)F)c(C(F)(F)C(F)(F)F)nn2C)ccc1Cl` [Am-41, N-{3-[(butyrylamino)methyl]-4-chlorophenyl}-1-methyl-3-(pentafluoroethyl)-4-(trifluoromethyl)-1H-pyrazole-5-carboxamide]: in series [1], the chromatographic logP is 3.7.
With `CCC(=O)NCc1cc(N(C)C(=O)c2c(C(F)(F)F)c(C(F)(F)C(F)(F)F)nn2C)ccc1F` [Example 1], the inhibition at 20 g/ha in series [2] stood at 100%; in series [4], 90%. In addition, in series [3], the inhibition at 500 g/ha amounted to 100%.
On to `CCN(C(=O)c1c(C(F)(F)F)c(C(F)(F)C(F)(F)F)nn1C)c1ccc(F)c(CNC(=O)C2CC2)c1` [Example 2], for which, in series [3], the “efficacy compared to similar compounds of the prior art” value (shortened to “efficacy compared to similar compounds”) is reported as “superior efficacy” and the inhibition at 100 g/ha came to 100%. Further, in series [4], the “efficacy compared to similar compounds” value was “superior efficacy” and the inhibition at 100 g/ha was 90%.
In the case of `CCC(=O)NCc1cc(N(CC)C(=O)c2c(C(F)(F)F)c(C(F)(F)C(F)(F)F)nn2C)ccc1F` [Example 3], the “efficacy compared to similar compounds” value in series [2], in series [3] and in series [4] was “superior efficacy” in each case. Further, the inhibition at 20 g/ha in series [2] (PHAECO, 20 g/ha, 7 dat) turned out to be 100%; in series [4] (MYZUPE, 20 g/ha, 6 dat), 100%. The inhibition at 500 g/ha in series [3] (TETRUR, 500 g/ha, 6 dat) was found to be 100%.
Regarding `CCC(=O)NCc1cc(NC(=O)c2c(C(F)(F)F)c(C(F)(F)C(F)(F)F)nn2C)ccc1F` [Example 4], the “efficacy compared to similar compounds” value in series [2], in series [3] and in series [4] was “superior efficacy” each time. Further, the inhibition at 20 g/ha in series [2] (PHAECO, 20 g/ha, 7 dat) was 100%. For the same compound, the inhibition at 500 g/ha is 100% in series [3] (TETRUR, 500 g/ha, 6 dat) and 100% in series [4] (MYZUPE, 6 dat).
Take `CC(=O)NCc1c(F)ccc(N(C)C(=O)c2c(C(F)(F)F)c(C(F)(F)C(F)(F)F)nn2C)c1F` [Example 7, N-[3-(acetamidomethyl)-2,4-difluorophenyl]-N,1-dimethyl-3-(pentafluoroethyl)-4-(trifluoromethyl)-1H-pyrazole-5-carboxamide]: the chromatographic logP in series [1] stood at 2.85. For the same compound, the inhibition at 100 g/ha in series [2] (PHAECO, 7 dat) turned out to be 100%. The inhibition at 500 g/ha worked out at 100% in series [3] (TETRUR, 500 g/ha, 6 dat) and 100% in series [4] (MYZUPE, 6 dat).
As for `CC(=O)NCc1cc(N(C)C(=O)c2c(C(F)(F)F)c(C(F)(F)C(F)(F)F)nn2C)ccc1F` [Example 8], the inhibition at 500 g/ha stood at 100% in series [3] (TETRUR, 500 g/ha, 6 dat) and 100% in series [4] (MYZUPE, 6 dat).
Turning to `CCN(C(=O)c1c(C(F)(F)F)c(C(F)(F)C(F)(F)F)nn1C)c1ccc(F)c(CNC(C)=O)c1` [Example 9], the “efficacy compared to similar compounds” value in series [3] and in series [4] was “superior efficacy” in each case. Moreover, the inhibition at 500 g/ha in series [3] (TETRUR, 500 g/ha, 6 dat) stood at 100%. In series [4] (MYZUPE, 20 g/ha, 6 dat), the inhibition at 20 g/ha amounted to 100%.
`CN(C(=O)c1c(C(F)(F)F)c(C(F)(F)C(F)(F)F)nn1C)c1cccc(CNC(=O)C2CC2)c1` [Example 10]: the inhibition at 500 g/ha in series [3] (TETRUR, 500 g/ha, 6 dat) was determined as 100%. In addition, the inhibition at 100 g/ha in series [4] (MYZUPE, 100 g/ha, 6 dat) turned out to be 100%.
As for `CC(=O)NCc1c(F)ccc(NC(=O)c2c(C(F)(F)F)c(C(F)(F)C(F)(F)F)nn2C)c1F` [Example 11], the inhibition at 100 g/ha in series [2] (PHAECO, 7 dat) came out at 100%. Besides, the inhibition at 500 g/ha in series [3] (TETRUR, 500 g/ha, 6 dat) was 90%.
`CCC(=O)NCc1cc(NC(=O)c2c(C(F)(F)F)c(C(F)(F)F)nn2C)ccc1F` [Example 201]: the “efficacy compared to similar compounds” value in series [3] and in series [4] was “superior efficacy” throughout. The inhibition at 100 g/ha in series [3] (TETRUR, 100 g/ha, 6 dat) amounted to 100%. Moreover, the inhibition at 20 g/ha in series [4] (MYZUPE, 20 g/ha, 6 dat) was determined as 100%.
As to `Cn1nc(C(F)(F)F)c(C(F)(F)F)c1C(=O)Nc1ccc(F)c(CNC(=O)C2CC2)c1` [Example 298], in series [4], the “efficacy compared to similar compounds” value was “superior efficacy”. Besides, the inhibition at 20 g/ha in series [4] (MYZUPE, 20 g/ha, 6 dat) stood at 90%.
With `CC(=O)NCc1cc(NC(=O)c2c(Br)c(C(F)(F)C(F)(F)F)nn2C)ccc1F` [Example 926], the “efficacy compared to similar compounds” value in series [3] is “superior efficacy”. Also, the inhibition at 100 g/ha in series [3] (TETRUR, 100 g/ha, 6 dat) worked out at 90%.
For the compound `Cn1nc(C(F)(F)C(F)(F)F)c(Br)c1C(=O)Nc1ccc(F)c(CNC(=O)C2CC2)c1` [Example 933], the “efficacy compared to similar compounds” value in series [2] and in series [3] was “superior efficacy” throughout. The inhibition at 20 g/ha in series [2] (PHAECO, 20 g/ha, 7 dat) was found to be 100%. For the same compound, the inhibition at 100 g/ha in series [3] (TETRUR, 100 g/ha, 6 dat) was found to be 90%.
Regarding `CC(=O)NCc1cc(NC(=O)c2c(Cl)c(C(F)(F)F)nn2C)ccc1F` [Example 937], in series [4], the “efficacy compared to similar compounds” value is listed as “superior efficacy”. For the same compound, in series [4] (MYZUPE, 100 g/ha, 6 dat), the inhibition at 100 g/ha was found to be 90%.
For the compound `Cn1nc(C(F)(F)C(F)(F)F)c(C(F)(F)F)c1C(=O)Nc1cccc(C(=O)NC2CC2)c1` [Example Ik-13, reference compound], the inhibition at 500 g/ha came out at 0% in series [3] (TETRUR, 500 g/ha, 6 dat) and 0% in series [4] (MYZUPE, 6 dat).
For the compound `Cn1nc(C(F)(F)F)c(Cl)c1C(=O)Nc1ccc(Cl)c(C(=O)NC2CC2)c1` [Example Ik-18, reference compound], in series [4] (MYZUPE, 100 g/ha, 6 dat), the inhibition at 100 g/ha stood at 0%.
For `Cn1nc(C(F)(F)C(F)(F)F)c(Br)c1C(=O)Nc1ccc(Cl)c(C(=O)NC2CC2)c1` [Example Ik-26, reference compound], the inhibition at 20 g/ha in series [2] (PHAECO, 20 g/ha, 7 dat) was 0%. Besides, the inhibition at 100 g/ha in series [3] (TETRUR, 100 g/ha, 6 dat) stood at 0%.
For `CC(C)NC(=O)c1cc(NC(=O)c2c(Br)c(C(F)(F)C(F)(F)F)nn2C)ccc1Cl` [Example Ik-27, reference compound], the inhibition at 100 g/ha in series [3] (TETRUR, 100 g/ha, 6 dat) came out at 0%.
On to `CCCNC(=O)c1cc(NC(=O)c2c(C(F)(F)F)c(C(F)(F)C(F)(F)F)nn2C)ccc1Cl` [Example Ik-30, reference compound], for which the inhibition at 20 g/ha in series [4] (MYZUPE, 20 g/ha, 6 dat) stood at 0%.
Turning to `CC(C)NC(=O)c1cc(NC(=O)c2c(C(F)(F)F)c(C(F)(F)C(F)(F)F)nn2C)ccc1F` [Example Ik-75, reference compound], the inhibition at 20 g/ha in series [2] (PHAECO, 20 g/ha, 7 dat) was determined as 0%. Also, the inhibition at 100 g/ha in series [3] (TETRUR, 100 g/ha, 6 dat) came to 0%; in series [4] (MYZUPE, 100 g/ha, 6 dat) it was 0%. Moreover, the inhibition at 500 g/ha in series [3] (TETRUR, 500 g/ha, 6 dat) was found to be 0%; in series [4] (MYZUPE, 6 dat), 0%.
For the compound `CN(C(=O)c1c(C(F)(F)F)c(C(F)(F)C(F)(F)F)nn1C)c1ccc(Cl)c(C(=O)NC2CC2)c1` [Example Ik-132, reference compound], the inhibition at 100 g/ha in series [4] (MYZUPE, 100 g/ha, 6 dat) was 0%.
For the compound `Cn1nc(C(F)(F)C(F)(F)F)c(C(F)(F)F)c1C(=O)Nc1ccc(F)c(C(=O)NC2CC2)c1` [Example Ik-155, reference compound], the inhibition at 100 g/ha in series [3] (TETRUR, 100 g/ha, 6 dat) worked out at 0%; in series [4] (MYZUPE, 100 g/ha, 6 dat), 0%.
Regarding `Cn1nc(C(F)(F)F)c(C(F)(F)F)c1C(=O)Nc1ccc(Cl)c(C(=O)NC2CC2)c1` [Example Ik-195, reference compound], the inhibition at 20 g/ha in series [4] (MYZUPE, 20 g/ha, 6 dat) worked out at 0%.
